From PubChem BioAssay (NCI)
Where “and” joins values, the source holds several entries; their conditions need not be identical. Equal entries are not always repeated.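 The compound was tested at five concentrations on cells cultured in 96-well plates, with a 48-hour exposure period. GI50: concentration for 50% inhibition of growth. TGI marks complete inhibition of growth.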

Assays:
Assay in all cases: NCI-60 cell line screen, 48 h
MDA-MB-435 = test system: MDA-MB-435
MDA-MB-231 breast = test system: MDA-MB-231 breast
DU-145 prostate = test system: DU-145 prostate
MCF7 breast = test system: MCF7 breast
MDA-N = test system: MDA-N
DLD-1 colon = test system: DLD-1 colon
HOP-18 NSCLC = test system: HOP-18 NSCLC
M19-MEL melanoma = test system: M19-MEL melanoma

Structure (SMILES) | GI50 (MDA-MB-435) [µM] | TGI (MDA-MB-435) [µM] | GI50 (MDA-MB-231 breast) [µM] | TGI (MDA-MB-231 breast) [µM] | GI50 (DU-145 prostate) [µM] | TGI (DU-145 prostate) [µM] | GI50 (MCF7 breast) [µM] | TGI (MCF7 breast) [µM] | TGI (MDA-N) [µM] | GI50 (DLD-1 colon) | TGI (DLD-1 colon) | GI50 (HOP-18 NSCLC) | TGI (HOP-18 NSCLC) [µM] | TGI (M19-MEL melanoma) | GI50 (M19-MEL melanoma) [µM]
CCOC(=O)[C@@H](C)C[C@H](Cc1ccccc1)NC(=O)c1csc([C@@H](C[C@H](C(C)C)N(C)C(=O)[C@@H](NC(=O)[C@H]2C[C@H](O[Si](C)(C)C(C)(C)C)CCN2C)C(C)C)OC(C)=O)n1 | 0.0389 | 0.165 | 0.329 | 1.89 | 0.287 | > 3.91 | 0.132 | > 8.33 | – | – | – | – | – | – | –
c1ccc2c(c1)[I+]c1ccccc1-2 | > 50 | > 50 | 47.6 | > 50 | 35.6 | > 50 | > 50 | > 50 | – | – | – | – | – | – | –
COc1cc2c(cc1C)NC(=O)/C2=C\c1cc(OC)c(OC)c(OC)c1 | > 100 | > 100 | 15.8 | 59.2 | – | – | 42.2 | > 100 | – | – | – | – | – | – | –
C=CCn1c(C)nc2cc(Nc3nc(Nc4ccc5nc(C)n(CC=C)c5c4)c4ccccc4n3)ccc21 | – | – | – | – | 0.389 | 1.34 | 0.224 | 0.554 | – | – | – | – | – | – | –
CC(=O)NC1=N/C(=C/c2cc([N+](=O)[O-])ccc2O)CN1C | – | > 100 | – | > 100 | – | > 100 | – | > 100 | > 100 | – | – | – | – | – | –
CC(=O)OCC1OC(n2c(-c3ccccc3)cc(-c3ccco3)c(C#N)c2=O)C(OC(C)=O)C(OC(C)=O)C1OC(C)=O (stereo not given) | – | – | – | – | – | – | – | – | – | > 53.1 µM and 25.8 µM | > 100 µM | 28.2 µM | 78.1 | > 100 µM | –
O=C(Oc1ccc(O)c2c(=O)n3c(cc12)[nH]c1ccccc13)c1ccccc1 | 28.5 | 89.9 | 6.22 | 42.1 | 30.5 | > 100 | 74.1 | > 100 | – | – | – | – | – | – | –
O=c1cc(-c2ccccc2)[nH]c2cc(Cl)cc(Cl)c12 | – | – | – | – | – | – | – | – | – | – | > 100 µM | – | > 100 | > 100 µM | –
CC(=O)O[C@H]1C(N(C)C(=O)c2ccccc2)CC[C@]2(C)C3CC[C@@]4(C)C(CC(O)[C@@H]4C(C)N(C)C)[C@@H]3CCC12 (stereo not given in full) | – | – | – | – | – | – | – | – | – | – | > 100 µM | – | > 100 | > 100 µM | –
NC(N)=N/N=C(/c1nc2ccc([N+](=O)[O-])cc2[nH]c1=O)C(O)c1ccco1 (stereo not given) | – | – | – | – | – | – | – | – | – | – | > 100 µM | – | > 100 | > 100 µM | –
CCOC(=O)CCC(=O)C1c2cccc(O)c2C(=O)c2c(O)cccc21 | – | – | – | – | – | – | – | – | – | – | 3.21 µM | – | 3.33 | 2.29 µM | –
O=c1cc(-c2ccccc2)[nH]c2cccc(S)c12 | – | – | – | – | – | > 100 | – | > 100 | – | – | – | – | – | – | –
CCCC(=O)c1c(NOC2OC(COC(C)=O)C(OC(C)=O)C(OC(C)=O)C2OC(C)=O)nc(OC)n(C)c1=O (stereo not given) | – | – | – | – | – | – | – | – | – | – | > 100 µM | – | – | > 100 µM | –
c1cnc2c(c1)-n1cccc1C1(CCSCC1)NN2 | – | – | – | – | – | – | – | – | – | – | – | – | > 100 | > 100 µM | –
O=C(C(O)c1cn(Cc2ccccc2)c2ccccc12)N1CCCCC1 (stereo not given) | – | – | – | – | – | – | – | – | – | – | > 100 µM | – | 90 | > 100 µM | –
O=C(Nc1ccccc1C(F)(F)F)c1cccc(NC2=C(Cl)C(=O)N(Cc3ccccc3)C2=O)c1 | 4.2 | > 33 | 3.86 | 21.4 | 8.19 | 44 | 2.68 | 27.1 | – | – | – | – | – | – | –

Structure (SMILES) | GI50 (MDA-MB-435) [µM] | TGI (MDA-MB-435) [µM] | GI50 (MDA-MB-231 breast) [µM] | TGI (MDA-MB-231 breast) [µM] | GI50 (DU-145 prostate) [µM] | TGI (DU-145 prostate) [µM] | GI50 (MCF7 breast) [µM] | TGI (MCF7 breast) [µM] | TGI (MDA-N) [µM] | GI50 (DLD-1 colon) | TGI (DLD-1 colon) | GI50 (HOP-18 NSCLC) | TGI (HOP-18 NSCLC) [µM] | TGI (M19-MEL melanoma) | GI50 (M19-MEL melanoma) [µM]
CC(=O)CC1CCC(=O)CCC(=O)OC(CC(C)=O)CCC(=O)CCC(=O)O1 (stereo not given) | – | > 100 | – | > 100 | – | > 100 | – | > 100 | > 100 | – | – | – | – | – | –
Cc1cc2nc3c(=O)n(C)c(=O)nc-3n(-c3ccc(Cl)cc3)c2cc1C | – | – | – | – | – | – | – | – | – | – | 42.1 µM | – | 19.9 | 5.74 µM | –
COc1cc(OC2OC(C)C(O)C(O)C2O)cc2oc(-c3ccc(O)cc3)c(CC=C(C)C)c(=O)c12 (stereo not given) | 20.5 | 59.9 | 6.38 | 21.4 | 34.3 | > 100 | 13.9 | 48.2 | – | – | – | – | – | – | –
C=CC(=O)N1CCCC(n2nc(-c3ccc(Oc4ccccc4)cc3)c3c(N)ncnc32)C1 (stereo not given) | 7.85 | 22.5 | 8.42 | 23.6 | 1.89 | 17.4 | 7.88 | 23.9 | – | – | – | – | – | – | –
COc1cc(C2c3cc4c(cc3[C@@H](Nc3ccc(C(=O)O)cc3)C3COC(=O)[C@H]23)OCO4)cc(OC)c1O (stereo not given in full) | – | – | – | – | – | – | – | – | – | 17.2 µM and 6.86 µM | 54.9 µM and > 17.5 µM | 16.8 µM and 5.25 µM | > 100 | 49.6 µM and > 17.5 µM | –
Clc1nc(Oc2ccccc2)nc(-c2cn(-c3ccccc3)c3ccccc23)n1 | 6.49 | 23.1 | 5.33 | 15.7 | 8.6 | 21.8 | 11.6 | 32.5 | – | – | – | – | – | – | –
C[CH2][Sn]1([CH2]C)[O]C(=O)[O][Sn]([CH2]C)([CH2]C)[O]1 | – | – | – | – | – | – | – | – | – | 25.6 µM | > 57.8 µM | 17.2 µM | 31.2 | 37.9 µM | 18.5
CCCCCCNC(=O)C1=C(C)NC(C)=C(C(=O)NCCCCCC)C1 | – | > 100 | – | > 100 | – | > 100 | – | > 100 | > 100 | – | – | – | – | – | –
COc1cc(OC)c(/C=C/c2ccc3ccccc3[n+]2C)c(OC)c1 | 0.342 | 1.53 | 1.76 | 12.1 | 0.944 | 15.3 | 0.841 | 10.6 | – | – | – | – | – | – | –
Oc1ccc(N=Nc2ccc(Cl)cc2)cc1 | – | 29 | – | 24.3 | – | 30.8 | – | 35.9 | 30.6 | – | – | – | – | – | –
CC(C)c1ccc(Cc2cnc(NC(=O)c3cc(Br)cs3)s2)cc1 | 0.355 | 2.16 | 3.09 | 19.4 | 3.67 | > 100 | 1.6 | > 100 | – | – | – | – | – | – | –
CCOc1ccccc1NC(=O)/C=C1\NC(=O)CS1 | – | – | – | – | – | – | – | – | – | – | > 100 µM | – | > 100 | > 100 µM | –
O=C(O)C1CCc2ccc3ccccc3c2C1c1cccc2ccccc12 (stereo not given) | – | 73.7 | – | 85.4 | – | 68.8 | – | 89.4 | 52.3 | – | – | – | – | – | –
COC(=O)CCC/C=C\C[C@H]1C=CC(=O)/C1=C/C[C@@H](O)CCc1cccc(C(F)(F)F)c1 | 2.01 | 6.15 | 4.65 | 17.1 | 2.59 | 10 | 0.775 | 12.9 | – | – | – | – | – | – | –
S=C(Nc1ccc(-c2nc3ccccc3[nH]2)cc1)NC1CCCCC1 | 16.4 | 43.3 | 18.1 | 43.1 | 37.9 | – | 19.7 | > 100 | – | – | – | – | – | – | –
COc1ccc2c(c1)C(=O)CC(N)C2 (stereo not given) | – | > 100 | – | > 100 | – | > 100 | – | > 100 | > 100 | – | – | – | – | – | –
